Measured values: PubChem BioAssay (NCI)
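Growth conditions: 96-well plates. Treatment: test compound, 48 hours, 5 concentrations. Analysis: linear interpolation between bracketing concentrations; unreached endpoints set to highest concentration. Abbreviation: GI50, concentration required for 50% inhibition of growth. TGI is the concentration that stops growth completely.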

Assays:
Assay in all cases: NCI tumour cell line growth inhibition, 48 h
RXF 393 renal = tested on: RXF 393 renal
M14 melanoma = tested on: M14 melanoma
SNB-19 CNS = tested on: SNB-19 CNS
SW-620 colon = tested on: SW-620 colon
HCC-2998 colon = tested on: HCC-2998 colon
EKVX NSCLC = tested on: EKVX NSCLC
ACHN renal = tested on: ACHN renal
HL-60(TB) leukemia = tested on: HL-60(TB) leukemia
U251 CNS = tested on: U251 CNS
HS 578T breast = tested on: HS 578T breast

SMILES	TGI (RXF 393 renal) [µM]	TGI (M14 melanoma) [µM]	TGI (SNB-19 CNS) [µM]	TGI (SW-620 colon) [µM]	TGI (HCC-2998 colon) [µM]	TGI (EKVX NSCLC) [µM]	TGI (ACHN renal) [µM]	TGI (HL-60(TB) leukemia) [µM]	TGI (U251 CNS) [µM]	GI50 (RXF 393 renal) [µM]	GI50 (HS 578T breast) [µM]	TGI (HS 578T breast) [µM]	GI50 (M14 melanoma) [µM]	GI50 (SNB-19 CNS) [µM]	GI50 (SW-620 colon) [µM]	GI50 (U251 CNS) [µM]	GI50 (HCC-2998 colon) [µM]	GI50 (ACHN renal) [µM]	GI50 (HL-60(TB) leukemia) [µM]	GI50 (EKVX NSCLC) [µM]
CCOc1ccc(/C=N\N2C(=O)c3ccccc3C2=O)cc1	> 100	> 100	> 100	> 100	> 100	> 100	> 100	> 100												
CCOC(=O)C/C(N)=C(\C#N)C(=O)OCC	> 100	> 100	> 100	> 100		> 100	> 100	> 100	> 100											
CN=c1ss/c(=N\C(=S)N(C)C)n1C1CCCCC1	> 31.6	> 10	> 31.6	> 31.6	> 31.6	> 31.6	> 31.6	> 100	> 31.6											
Cc1ccc(SC2C(C)(C)N(C(C)C)P2(=O)N(C(C)C)C(C)C)cc1 (stereo not drawn)		> 100	> 100	> 50	> 100	97.3	> 100	41.9	> 100											
C/C(=C\CCc1ccsc1)CC/C=C(\C)CCCN1CCN(CCO)CC1	5.42	4.2	21	4.29	3.63		17.4	4.14	7.28	1.82	2.7	8.07	2.05	4.4	1.93	2.27	1.97	4.67	2.01	
COC(=O)CSc1n[nH]c(-c2ccccc2)n1		> 100	> 100	> 100		> 100	> 100	> 100	> 100											
CC(N)CN.CC(N)CN.[Cl-].[O]=[Os+2]=[O] (stereo not drawn)	> 100	> 100	> 100	> 100	> 100	> 100			> 100	> 100			> 100	> 100	69	> 100	> 100			> 100
COC(=O)[C@H]1CC(=O)C=C2CCCC21 (stereo partly drawn)	> 100	> 100	> 100	> 100	> 100	> 100		> 100	> 100											
COc1ccc(C2c3cc4c(c(OC)c3CC3OCC(=O)C32)OCO4)cc1OC (stereo not drawn)		> 100	> 100	> 100		> 100	71.7	< 0.01	> 100			46.4	< 0.01	< 0.01	< 0.01	< 0.01				< 0.01
CC1(C)C(=O)CCC(=O)C(C)(C)C2=CC=C(O2)C(C)(C)C(=O)CCC(=O)C(C)(C)C2=CC=C1O2	> 100		> 100	> 100	> 100	> 100	> 100	> 100	> 100											
CCOC(=O)c1c(C(F)(F)F)n([O-])c2ccc(Cl)cc2[n+]1=O	3.77	4.48	19.2	3.74		5.14	3.14	4.07	3.36	1.82	2.17	5.13	2.02	6.21	1.87	1.75		1.69	1.93	2.05
CC(C)(C)C1CCC(CI)(N=[N+]=[N-])CC1 (stereo not drawn)	> 100	> 100	> 100	> 100	> 100	> 100	> 100	> 100	> 100											
O=c1c2cc(Br)ccc2[nH]c(=S)n1-c1ccccc1		> 100	> 100	> 100	> 100	> 100	> 100		> 100											
O=C(O)c1ccccc1-c1ccccc1C(=O)Nc1ccc2c(c1)Cc1ccccc1-2	> 100	41.6	> 100	> 100	33.4	54.8	> 100		> 100			> 100								
Cc1cn(C2CC(N=[N+]=[N-])C(CO)O2)c(=O)[nH]c1=O (stereo not drawn)		> 1000		> 1000	> 1000	> 1000	> 1000	> 1000				> 1000	> 1000		> 1000		> 1000	> 1000		> 1000
COc1ccc(/C=c2\sc3nnc(CCC(=O)Nc4cccc(C(F)(F)F)c4)n3c2=O)cc1	98.5	> 100	> 100	> 100	> 100	> 100	> 100	> 71.6	> 100											
O=S1c2ccccc2N=C(c2ccc3ccccc3c2)CC1c1ccccc1F (stereo not drawn)	> 100	> 100	> 100	> 100	> 100	> 100	> 100	> 100	> 100											
CC1=C(C(=O)Nc2cccc(C(F)(F)F)c2)C(c2ccccc2F)C(C(=O)Nc2cccc(C(F)(F)F)c2)=C(C)N1	15.5	15.7	25.8	22.7	7.67	17.5	19	7.98	27.1											
CN(C(=O)C12C3C4C1C1C2C3C41C(=O)N(C)C(C)(C)C)C(C)(C)C (stereo not drawn)		> 50	> 50	> 50	> 50	> 50	> 50	> 50	> 50											

SMILES	TGI (RXF 393 renal) [µM]	TGI (M14 melanoma) [µM]	TGI (SNB-19 CNS) [µM]	TGI (SW-620 colon) [µM]	TGI (HCC-2998 colon) [µM]	TGI (EKVX NSCLC) [µM]	TGI (ACHN renal) [µM]	TGI (HL-60(TB) leukemia) [µM]	TGI (U251 CNS) [µM]	GI50 (RXF 393 renal) [µM]	GI50 (HS 578T breast) [µM]	TGI (HS 578T breast) [µM]	GI50 (M14 melanoma) [µM]	GI50 (SNB-19 CNS) [µM]	GI50 (SW-620 colon) [µM]	GI50 (U251 CNS) [µM]	GI50 (HCC-2998 colon) [µM]	GI50 (ACHN renal) [µM]	GI50 (HL-60(TB) leukemia) [µM]	GI50 (EKVX NSCLC) [µM]
O=[N+]([O-])c1ccc(N/N=C/c2ccccc2O)nc1	> 100	> 100	> 100	> 100	> 100	> 100	> 100		> 100	3.48	> 100	> 100	1.66	3.88	1.14	1.69	1.46	0.594		3.58
CC(C)(C)C1CCP(=O)(c2ccccc2)CC1 (stereo not drawn)	> 100	> 100	> 100	> 100	> 100	> 100	> 100	> 100	> 100											
Cc1ccc(-c2c3c(N)nc(-c4ccncc4)nc3nc3c2c(C)nn3-c2ccccc2)cc1	33	> 37.5	> 37.5	> 37.5	> 37.5		> 37.5	> 37.5	31.7	3.88	5.92	> 37.5	13.8	> 37.5	9.99	6.12	> 37.5	> 37.5	> 37.5	
O=c1[nH]cc(CO)c(=O)[nH]1	> 100	> 100	> 100	> 100	> 100		> 100	> 100	> 100	> 100	> 100	> 100	> 100	> 100	> 100	> 100	> 100	> 100	> 100	
O=S(=O)(CC(O)C(Cl)(Cl)Cl)NNc1ccccc1 (stereo not drawn)	> 100	> 100	> 100	> 100		> 100	> 100	> 100	> 100			> 100								
Cc1nn2c(=O)n(-c3cccc(-n4nnc5c(-c6ccccc6)c(C)nn5c4=O)c3C)nnc2c1-c1ccccc1	> 100	29.6	> 100	48.4	55.8	> 100	76.7	87.9	> 100											
COc1cc2c(cc1OCc1ccccc1)N=C[C@@H]1C[C@@H](F)CN1C2=O	0.511	0.402	18.2	1.21	3.02	2.29	0.669		0.4	0.217		0.503	0.158	0.596		0.154	0.496	0.242		0.73
O=C(CCCCCNC1=CC(=O)c2ccccc2C1=O)NCCC[Te]c1ccccc1	4.11	1.86	9.65		2.44	0.928	1.49	4.4	1.87	1.54	0.364	2.65	0.473	1.64		0.356	0.798	0.408	0.315	0.259
S=C(Nc1ccc(Cl)cc1)SC1CCCCC1	58.9	42.7	53.6	> 100	39.3	47	36.6		> 100			> 100								
COc1cc(-c2ccccc2)c(OC)cc1CCl	> 100	> 100	> 100	> 100	> 100	> 100	> 100	> 100	> 100											
Cc1ccc(C)c(NC(=O)C(=O)CC(=O)c2cccc3ccccc23)c1	> 100	> 100	> 100	> 100	> 100	> 100	> 100	> 100	> 100											
Cc1ccc(-n2nnc3c(sc4ccccc43)c2=O)cc1	> 100	> 100	> 100	> 100	> 100		> 100	> 100	19	16.8	2.18	8.71	> 100	6.22	26.2	3.38	68.7	4.17	> 100	
Cc1ccn2c(-c3csc(Nc4cccc(O)c4)n3)c(C)nc2c1	7.26	18	77.4	26.8	17.4		> 100	22.1	10.3	1.27	1.17	29.3	0.359	4.66	0.337	0.681	2.81	0.812	0.343	
C=C(CS(=O)(=O)c1ccccc1)C(=O)OCC	24.4	24.2	37.9	29.2	35.1	39.9	29.5		30.7											
COc1cc(C2CC(=O)c3c(C)nn(-c4nc5ccccc5[nH]4)c3C2)cc(OC)c1OC (stereo not drawn)	7.8	> 100		> 100	> 100					2.12			> 100		> 100		> 100			
COc1ccc2oc(-c3cc4cc(OC)ccc4o3)cc2c1	> 100	> 100	> 100	> 100	> 100	> 100	> 100	> 100												
Cc1cc(C(=O)N2CCN(C)CC2)c2c(=O)n(-c3ccccc3)c(=O)n(CC(O)CN3CCN(c4ncccn4)CC3)c2n1 (stereo not drawn)		> 100	> 100	> 100	> 100	> 100	> 100	> 100	> 100		> 100	> 100	> 100	> 100	> 100	> 100	> 100	> 100	> 100	> 100
NC(=O)c1ccccc1NC(=O)C(=O)Nc1n[nH]c(N)n1	> 100	> 100	> 100	> 100	> 100	> 100	> 100	> 100	> 100											
CCOP(=O)(CCN1CCN(CCCCCOc2cc3c(cc2OC)C(=O)N2CCC[C@H]2C=N3)CC1)OCC	6.59	25.8	> 100	30.5	38.1	47.8	50.4	8.39		1.77	3.54	31.1	8.01	5.65	4.47		17.3	18.5	1.82	19.5
